# Key:
# [1] = Solubility in dimethyl sulfoxide; type: physicochemical
# From the text: The compounds of the present invention have improved solubility in organic solvents compared to compounds in the prior art. […] It would be expected that this increase in solubility in organic solvents would lead to improvements in bioavailability and ease of manufacture and formulation.
# [2] = target: T1, CB1 receptor (Homo sapiens, UniProt P21554); assay: [35S]-GTPγS binding assay, membranes of cells stably transfected with the CB1 gene, inhibition of agonist CP55940 (EC80); type: biochemical; settings: half maximal inhibition of GTPγS binding; EC80 concentration of CP55940
# T1 construct: expressed in transfected cells
# T1 sequence (P21554 whole entry): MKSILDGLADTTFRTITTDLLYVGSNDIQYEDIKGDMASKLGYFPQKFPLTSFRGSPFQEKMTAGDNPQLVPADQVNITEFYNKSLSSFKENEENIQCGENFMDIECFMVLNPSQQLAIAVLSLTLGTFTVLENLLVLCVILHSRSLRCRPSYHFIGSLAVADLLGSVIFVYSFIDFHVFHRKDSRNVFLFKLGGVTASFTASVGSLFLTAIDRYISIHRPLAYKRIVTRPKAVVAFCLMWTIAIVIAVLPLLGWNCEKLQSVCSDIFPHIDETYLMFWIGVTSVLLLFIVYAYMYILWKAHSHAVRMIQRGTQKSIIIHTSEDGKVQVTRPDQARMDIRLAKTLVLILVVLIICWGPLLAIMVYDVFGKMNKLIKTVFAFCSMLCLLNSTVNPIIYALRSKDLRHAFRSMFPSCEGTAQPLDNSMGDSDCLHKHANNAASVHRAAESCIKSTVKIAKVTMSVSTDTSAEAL
# Description: Compounds of the present invention are active against the receptor product of the CB1 gene. The affinity of the compounds of the invention for central cannabinoid receptors is demonstrable in methods described in Devane et al , Molecular Pharmacology, 1988, 34,605 or those described in WO01/70700 or EP 656354. Alternatively the assay may be performed as follows.
# 10 μg of membranes prepared from cells stably transfected with the CB1 gene were suspended in 200 μl of 100 mM NaCl, 5 mM MgCl2, 1 mM EDTA, 50 mM HEPES (pH 7.4), 1 mM DTT, 0.1% BSA and 100 μM GDP. To this was added an EC80 concentration of agonist (CP55940), the required concentration of test compound and 0.1 μCi [^35S]-GTPγS. The reaction was allowed to proceed at 30° C. for 45 min. […] Filters were then covered with scintilant and counted for the amount of [^35S]-GTPγS retained by the filter.
# Activity is measured in the absence of all ligands (minimum activity) or in the presence of an EC80 concentration of CP55940 (maximum activity). […] At various concentrations of novel ligand, activity is calculated as a percentage of the maximum activity and plotted. The data are fitted using the equation y=A+((B-A)/1+((C/x) UD)) and the IC50 value determined as the concentration required to give half maximal inhibition of GTPγS binding under the conditions used.
SMILES,solubility in dimethyl sulfoxide [1],IC50 [2]
"Cc1c2c(n(-c3ccc(Cl)cc3Cl)c1-c1ccc(Cl)cc1)CCN(N1CCCCC1)C2=O [Example 19 of WO03/027114, 2-(4-chlorophenyl)-1-(2,4-dichlorophenyl)-3-methyl-5-(1-piperidinyl)-1,5,6,7-tetrahydro-4H-pyrrolo-[3,2-c]pyridin-4-one]",insoluble,
"Cc1c2c(n(-c3ccccc3Cl)c1-c1ccc(OS(=O)(=O)CCC(F)(F)F)cc1)CCN(N1CCCCC1)C2=O [Example 1, 3,3,3-Trifluoropropane-1-sulfonic acid 4-[1-(2-chlorophenyl)-3-methyl-4-oxo-5-piperidin-1-yl-4,5,6,7-tetrahydro-1H-pyrrolo[3,2-c]pyridine-2-yl]phenyl ester]",,0.98 nM
